According to PubChem BioAssay (NCI):
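These data come from cells grown in 96-well plates and exposed to compound for 48 hours at five concentrations. The concentration for 50% growth inhibition is given as GI50. TGI: concentration producing complete growth inhibition.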

Tests used:
Test in all cases: inhibition of tumour cell growth, NCI panel, 48 h
[1] = test system: 786-0 renal
[2] = test system: A498 renal
[3] = test system: A549 NSCLC
[4] = test system: ACHN renal
[5] = test system: BT-549 breast
[6] = test system: CCRF-CEM leukemia
[7] = test system: DU-145 prostate
[8] = test system: EKVX NSCLC
[9] = test system: HCC-2998 colon
[10] = test system: HCT-116 colon
[11] = test system: HCT-15 colon
[12] = test system: HL-60(TB) leukemia
[13] = test system: HOP-62 NSCLC
[14] = test system: HOP-92 NSCLC
[15] = test system: HS 578T breast
[16] = test system: HT29 colon
[17] = test system: IGROV1 ovarian
[18] = test system: KM12 colon
[19] = test system: LOX IMVI melanoma
[20] = test system: M14 melanoma
[21] = test system: MALME-3M melanoma
[22] = test system: MCF7 breast
[23] = test system: MDA-MB-231 breast
[24] = test system: MDA-MB-435
[25] = test system: MOLT-4 leukemia
[26] = test system: NCI-H226 lung
[27] = test system: NCI-H23 lung
[28] = test system: NCI-H460 lung
[29] = test system: NCI-H522 lung
[30] = test system: NCI/ADR-RES ovarian
[31] = test system: OVCAR-3 ovarian
[32] = test system: OVCAR-4 ovarian
[33] = test system: OVCAR-5 ovarian
[34] = test system: OVCAR-8 ovarian
[35] = test system: PC-3 prostate
[36] = test system: RXF 393 renal
[37] = test system: SF-268 CNS
[38] = test system: SF-295 CNS
[39] = test system: SF-539 CNS
[40] = test system: SK-MEL-2 melanoma
[41] = test system: SK-MEL-28 melanoma
[42] = test system: SK-MEL-5 melanoma
[43] = test system: SK-OV-3 ovarian
[44] = test system: SN12C renal
[45] = test system: SNB-19 CNS
[46] = test system: SNB-75 CNS
[47] = test system: SR leukemia
[48] = test system: SW-620 colon
[49] = test system: T-47D breast
[50] = test system: TK-10 renal
[51] = test system: U251 CNS
[52] = test system: UACC-257 melanoma
[53] = test system: UACC-62 melanoma
[54] = test system: UO-31 renal
[55] = test system: CAKI-1 renal
[56] = test system: COLO 205 colon
[57] = test system: K-562 leukemia
[58] = test system: RPMI-8226 leukemia

Compound `COc1cc(NC(=O)Nc2cnc(Nc3ccc(N4CCOCC4)cc3)nc2Oc2cccc(OC)c2)cc(OC)c1` has a GI50 [1] of 0.928 µM, a TGI [1] of 1.88 µM and a GI50 [2] of 1.3 µM. The TGI [2] was 2.97 µM, the GI50 [3] was 1.99 µM and the TGI [3] was 6.47 µM. It also gave a GI50 [4] of 1.61 µM, a TGI [4] of 6.84 µM and a GI50 [5] of 1.49 µM. For the same compound, the TGI [5] was 5.74 µM, the GI50 [6] was over 50 µM and the TGI [6] was over 50 µM. For the same compound, the GI50 [7] was 1.73 µM, the TGI [7] was 5.82 µM and the GI50 [8] was 2.17 µM. For the same compound, the TGI [8] was 24.5 µM, the GI50 [9] was 1.32 µM and the TGI [9] was 3.62 µM. The GI50 [10] was 1.1 µM, the TGI [10] was 2.74 µM and the GI50 [11] was 5.35 µM. For the same compound, the TGI [11] was over 50 µM, the GI50 [12] was 2.76 µM and the TGI [12] was over 50 µM. It also gave a GI50 [13] of 1.76 µM, a TGI [13] of 6.9 µM and a GI50 [14] of 1.14 µM. It also gave a TGI [14] of 3.51 µM, a GI50 [15] of 1.97 µM and a TGI [15] of 20.6 µM. For the same compound, the GI50 [16] was 1.1 µM, the TGI [16] was 3.15 µM and the GI50 [17] was 1.8 µM. For the same compound, the TGI [17] was 7.77 µM, the GI50 [18] was 2.19 µM and the TGI [18] was 22.5 µM. For the same compound, the GI50 [19] was 1.47 µM, the TGI [19] was 5.59 µM and the GI50 [20] was 1.85 µM. It also gave a TGI [20] of 9.2 µM, a GI50 [21] of 1.28 µM and a TGI [21] of 3.82 µM. For the same compound, the GI50 [22] was 1.92 µM, the TGI [22] was 18.8 µM and the GI50 [23] was 1.41 µM. The TGI [23] was 4.7 µM, the GI50 [24] was 1.99 µM and the TGI [24] was 11.5 µM. For the same compound, the GI50 [25] was 36.8 µM, the TGI [25] was over 50 µM and the GI50 [26] was 1.88 µM. The TGI [26] was 8.48 µM, the GI50 [27] was 1.82 µM and the TGI [27] was 11.8 µM. It also gave a GI50 [28] of 1.12 µM, a TGI [28] of 2.27 µM and a GI50 [29] of 1.44 µM. It also gave a TGI [29] of 6.25 µM, a GI50 [30] of 4.04 µM and a TGI [30] of over 50 µM. It also gave a GI50 [31] of 1.27 µM, a TGI [31] of 3.25 µM and a GI50 [32] of 1.13 µM. It also gave a TGI [32] of 2.69 µM, a GI50 [33] of 6.49 µM and a TGI [33] of 41.6 µM. It also gave a GI50 [34] of 1.31 µM, a TGI [34] of 3.19 µM and a GI50 [35] of 3.16 µM. It also gave a TGI [35] of 23.7 µM, a GI50 [36] of 0.887 µM and a TGI [36] of 1.82 µM. For the same compound, the GI50 [37] was 2.07 µM, the TGI [37] was 12.3 µM and the GI50 [38] was 1.19 µM. For the same compound, the TGI [38] was 3.61 µM, the GI50 [39] was 0.884 µM and the TGI [39] was 1.75 µM. It also gave a GI50 [40] of 1.74 µM, a TGI [40] of 8.67 µM and a GI50 [41] of 1.61 µM. The TGI [41] was 6.21 µM, the GI50 [42] was 1.13 µM and the TGI [42] was 2.65 µM. The GI50 [43] was 2.79 µM, the TGI [43] was 11.1 µM and the GI50 [44] was 1.3 µM. It also gave a TGI [44] of 3.71 µM, a GI50 [45] of 5.73 µM and a TGI [45] of over 50 µM. For the same compound, the GI50 [46] was 1.1 µM, the TGI [46] was 4.69 µM and the GI50 [47] was 2.71 µM. It also gave a TGI [47] of over 50 µM, a GI50 [48] of 2.99 µM and a TGI [48] of over 50 µM. It also gave a GI50 [49] of 2.14 µM, a TGI [49] of over 50 µM and a GI50 [50] of 1.11 µM. The TGI [50] was 2.85 µM, the GI50 [51] was 1.63 µM and the TGI [51] was 5.05 µM. For the same compound, the GI50 [52] was 3.36 µM, the TGI [52] was 16.8 µM and the GI50 [53] was 1.35 µM. The TGI [53] was 4.04 µM, the GI50 [54] was 1.3 µM and the TGI [54] was 6.74 µM.
With `Cc1ccccc1OC(C)C(=O)NN1C(=O)CC(=O)N(c2ccccc2)C1=S` (centres undefined) the TGI [1] was over 100 µM, the TGI [2] was over 100 µM and the TGI [3] was over 100 µM. For the same compound, the TGI [4] was over 100 µM, the TGI [5] was over 100 µM and the TGI [55] was over 100 µM. The TGI [56] was over 100 µM, the TGI [7] was over 100 µM and the TGI [8] was over 100 µM. The TGI [9] was over 100 µM, the TGI [10] was over 100 µM and the TGI [11] was over 100 µM. It also gave a TGI [12] of 61.2 µM, a TGI [13] of over 100 µM and a TGI [14] of over 100 µM. The TGI [15] was over 100 µM, the TGI [16] was over 100 µM and the TGI [17] was over 100 µM. The TGI [57] was over 100 µM, the TGI [18] was over 100 µM and the TGI [19] was over 100 µM. For the same compound, the TGI [20] was over 100 µM, the TGI [21] was over 100 µM and the TGI [22] was over 100 µM. It also gave a TGI [23] of over 100 µM, a TGI [24] of over 100 µM and a TGI [25] of over 100 µM. It also gave a TGI [26] of over 100 µM, a TGI [27] of over 100 µM and a TGI [28] of over 100 µM. It also gave a TGI [29] of over 100 µM, a TGI [30] of over 100 µM and a TGI [31] of over 100 µM. For the same compound, the TGI [32] was over 100 µM, the TGI [33] was over 100 µM and the TGI [34] was over 100 µM. It also gave a TGI [35] of over 100 µM, a TGI [58] of over 100 µM and a TGI [36] of over 100 µM. The TGI [37] was over 100 µM, the TGI [38] was over 100 µM and the TGI [39] was over 100 µM. The TGI [40] was over 100 µM, the TGI [41] was over 100 µM and the TGI [42] was over 100 µM. It also gave a TGI [43] of over 100 µM, a TGI [44] of over 100 µM and a TGI [45] of over 100 µM. The TGI [46] was over 100 µM, the TGI [48] was over 100 µM and the TGI [49] was over 100 µM. The TGI [50] was over 100 µM, the TGI [51] was over 100 µM and the TGI [52] was over 100 µM. For the same compound, the TGI [53] was over 100 µM and the TGI [54] was over 100 µM.
